Measurements from EP3907227A1, “TRILOBINE DERIVATIVES AND THEIR USE THEREOF IN THE TREATMENT OF MALARIA” (Institut Pasteur, priority 2020, dated 2021).
Where two headings read alike, the source gives them in different places.

Columns and labels:
[1] = test system: P. falciparum NF54 (drug-sensitive line); test: Inhibition of proliferation of asynchronous asexual cultures (SYBR Green I based assay, 72h); type: cell-based; conditions: for activity at 5 µM: first screen at 5µM in duplicate, 72h, NF54, read-out: % survival @5uM
Method: Compounds were provided at a concentration of 10 mM in DMSO.
P. falciparum parasite are cultured using standard protocol (Trager and Jensen, Science 1976, 193(4254), 673-675). Briefly, parasites are cultured at 4% hematocrit (O+ human blood, Etablissement Français du Sang, France) in RPMI1640 complemented with 0.1% Albumax I, HEPES buffer, hypoxanthine, and gentamycin. They are incubated at 37°C under an atmosphere of 5% CO2 and 5% O2.
Compounds of the invention were assayed for a first screen at 5µM in duplicate against asynchronous asexual cultures of P. falciparum NF54 (drug-sensitive line) containing mostly rings (2% hematocrit. 0.5% starting parasitemia). Plates were incubated for 72h at 37°C under a reduced oxygen atmosphere. Parasite growth was assessed using the SYBR Green I based assay.
IC50 were determined using Graphpad Prism 6 software. Dihydroartemisinin (starting concentration 50nM) and DMSO were used as positive and negative controls.

[2] = test system: Strain 5150; test: Inhibition of proliferation of multi-resistant field isolates, asynchronous asexual stages, SYBR-green assay; type: cell-based, P. falciparum; conditions: Plasmodium falciparum, read-out: IC50 nM Strain 5150 mean*
Method: (§1) Compounds 63 and 84 were evaluated regarding the inhibition of the proliferation of multi-resistant field isolates adapted to culture. A panel of four Cambodian strains bearing different molecular markers of resistance were selected: 3D7: Laboratory strain, drug-sensitive, 5150: Cambodian isolate resistant to Chloroquine and Pyrimethamine, 6591: Cambodian isolate resistant to Chloroquine, Pyrimethamine, 5248: Cambodian isolate resistant to Chloroquine, Pyrimethamine, Mefloquine and Artemisinin, 6320: Cambodian isolate resistant to Chloroquine, Pyrimethamine, Piperaquine and Artemisinin.
(§2) IC50 were obtained against asynchronous asexual stages using SYBR-green assay after 72h of incubation with a serial dilution of the compounds. Data represents the mean and SD of 3 independent experiments ran in triplicates. Table 2 illustrates mean IC50 values and their standard deviation in nanomolar.

[3] = test system: Strain 5248; test: as above; type: cell-based, P. falciparum; conditions: Plasmodium falciparum, read-out: IC50 nM Strain 5248 mean*
Method: as §1, §2

[4] = test system: Strain 6591; test: as above; type: cell-based, P. falciparum; conditions: Plasmodium falciparum, read-out: IC50 nM Strain 6591 mean*
Method: as §1, §2

[5] = test system: Strain 6320; test: as above; type: cell-based, P. falciparum; conditions: Plasmodium falciparum, read-out: IC50 nM Strain 6320 mean*
Method: as §1, §2

[6] = test system: Lab. Strain 3D7; test: Inhibition of proliferation, asynchronous asexual stages, SYBR-green assay, laboratory strain; type: cell-based, P. falciparum; conditions: Plasmodium falciparum, read-out: IC50 nM Lab. Strain 3D7 mean*
Method: as §1, §2

[7] = test system: Parasites; test: Parasite reduction rate (time needed to kill the parasites); type: cell-based; conditions: survival curves, duration of treatment versus log viable parasites, Figure 3
Method: Parasites are incubated (see for example Sanz et al. PLoS ONE 7, e30949 (2012)) with a compound of the invention (or a reference) for different time-windows, washed, and diluted serially in 96-well plates in fresh red blood cells. Parasites are kept in culture for 3 to 4 weeks, when growth is assessed to evaluate the number of parasites that survive-correlated to the number of wells where growth is found. Survival curves are obtained by plotting the duration of treatment versus the log of the number of viable parasites (figure 3).

[8] = Plasmodium falciparum, NF54, 72 h, SYBR Green I, read-out: Malaria CI50
[9] = Plasmodium falciparum, NF54, 72h, SYBR Green I, read-out: Malaria CI50

| Compound | IC50 [1, 8] [nM] | activity at 5 µM ([1]; Plasmodium falciparum) [%] | other results |
| --- | --- | --- | --- |
| CCN(CC)CCCNC(=O)N1CCc2cc3c4cc2C1Cc1ccc(OC)c(c1)Oc1ccc(cc1)CC1c2c(cc(OC)c(c2O4)O3)CCN1C(=O)NCCCN(CC)CC (stereo not drawn) [Compound 87] | 441 ± 67 | 11.3 | – |
| CN(C)CCCOc1ccc2cc1Oc1ccc(cc1)CC1c3c(cc(O)c4c3Oc3cc5c(cc3O4)CCN(C)C5C2)CCN1C (stereo not drawn) [Compound 113] | 153 ± 58 | – | – |
| COc1ccc2cc1Oc1ccc(cc1)CC1c3c(cc(OC)c4c3Oc3cc5c(cc3O4)CCN(C(=O)Nc3ccncc3)C5C2)CCN1C (stereo not drawn) [Compound 23] | 223 ± 58 | 13.4 | – |
| COc1ccc2cc1Oc1ccc(cc1)C[C@H]1c3c(cc(OC)c4c3Oc3cc5c(cc3O4)CCN(C)[C@H]5C2)CCN1C [Isotrilobine, reference compound] | – | – | IC50 ([1]; Plasmodium falciparum, NF54, 72 h, same conditions as Table 1 (NF54, 72h), read-out: mean IC50 +/- SD): 1780 nM |
| CCc1nc(N)nc(N)c1-c1ccc(Cl)cc1 [Pyrimethamine] | – | – | IC50 ([2]; 72h, Cambodian isolate resistant to Chloroquine and Pyrimethamine, mean of three replicates): > 5000 nM; IC50 ([3]; 72h, Cambodian isolate resistant to Chloroquine, Pyrimethamine, Mefloquine and Artemisinin, mean of three replicates): > 5000 nM; IC50 ([4]; 72h, Cambodian isolate resistant to Chloroquine, Pyrimethamine, mean of three replicates): > 5000 nM; IC50 ([5]; 72h, Cambodian isolate resistant to Chloroquine, Pyrimethamine, Piperaquine and Artemisinin, mean of three replicates): > 5000 nM; IC50 ([6]; 3D7, 72h, laboratory strain, drug-sensitive, mean of three replicates): 30 nM |
| COc1cc2c3c4c1Oc1cc5c(cc1O4)C(Cc1ccc(OCCCN4CCN(C)CC4)c(c1)Oc1ccc(cc1)CC3N(C)CC2)N(C)CC5 (stereo not drawn) [Compound 68] | 189 | 14.8 | – |
| COc1ccc2cc1Oc1ccc(cc1)CC1c3c(cc(OC)c4c3Oc3cc5c(cc3O4)CCN(C)C5C2)CCN1C(=O)NCc1ccccc1 (stereo not drawn) [Compound 28] | 504 ± 134 | 14.4 | – |
| COc1ccc2cc1Oc1ccc(cc1)CC1c3c(cc(OC)c4c3Oc3cc5c(cc3O4)CCN(C(=O)Nc3cccnc3)C5C2)CCN1C (stereo not drawn) [Compound 27] | 383 ± 173 | 12.7 | – |
| CCN(CC)CCCNC(=O)N1CCc2cc3c4cc2C1Cc1ccc(OC)c(c1)Oc1ccc(cc1)CC1c2c(cc(OC)c(c2O4)O3)CCN1C (stereo not drawn) [Compound 88] | 297 ± 31 | 14.7 | – |
| CCN(CC)CCOc1ccc2cc1Oc1ccc(cc1)CC1c3c(cc(OC)c4c3Oc3cc5c(cc3O4)CCN(C)C5C2)CCN1C (stereo not drawn) [Compound 78] | 331 ± 29 | 12.6 | – |
| CCN(CC)CCCNC(=O)N1CCc2cc(OC)c3c4c2C1Cc1ccc(cc1)Oc1cc(ccc1OC)CC1c2cc(c(cc2CCN1C)O3)O4 (stereo not drawn) [Compound 89] | 428 ± 77 | 14.4 | – |
| CCN(CC)CCCC(C)Nc1ccnc2cc(Cl)ccc12 (stereo not drawn) [Chloroquine] | – | – | IC50 ([2]; 72 h): 55 nM; IC50 ([3]; 72 h): 98 nM; IC50 ([4]; 72 h): 64 nM; IC50 ([5]; 72 h): 109 nM; IC50 ([6]; 3D7, 72 h): 13 nM |
| COc1ccc2cc1Oc1ccc(cc1)CC1c3c(cc(OC)c4c3Oc3cc5c(cc3O4)CCN(C(=O)NCc3ccncc3)C5C2)CCN1C (stereo not drawn) [Compound 31] | 151 ± 21 | 14.8 | – |
| COc1cc2c3c4c1Oc1cc5c(cc1O4)C(Cc1ccc(OCCCN(C)C)c(c1)Oc1ccc(cc1)CC3NCC2)N(C)CC5 (stereo not drawn) [Compound 116] | 263 ± 50 | – | – |
| CN1CCc2cc3c4cc2C1Cc1ccc(O)c(c1)Oc1ccc(cc1)CC1NCCc2cc(O)c(c(c21)O4)O3 (stereo not drawn) [Compound 122] | – | – | IC50 [1, 9]: 248 ± 58 nM |
| COc1ccc2cc1Oc1ccc(cc1)CC1c3c(cc(OC)c4c3Oc3cc5c(cc3O4)CCN(C)C5C2)CCN1CC(O)CO (stereo not drawn) [Compound 48] | 195 ± 55 | 11.8 | – |
| COc1ccc2cc1Oc1ccc(cc1)CC1c3c(cc(OC)c4c3Oc3cc5c(cc3O4)CCN(C)C5C2)CCN1CCCN(C)C (stereo not drawn) [Compound 46] | 169 ± 10 | 14.2 | – |
| Clc1ccc2c(N3CCN(CCCN4CCN(c5ccnc6cc(Cl)ccc56)CC4)CC3)ccnc2c1 [Piperaquine] | – | – | IC50 ([2]; 72 h): 26 nM; IC50 ([3]; 72 h): 33 nM; IC50 ([4]; 72 h): 34 nM; IC50 ([5]; 72 h): > 200 nM; IC50 ([6]; 3D7, 72 h): 41 nM |
| COc1ccc2cc1Oc1ccc(cc1)C[C@@H]1NCCc3cc(OC)c4c(c31)Oc1cc3c(cc1O4)CCN[C@H]3C2 [Nortrilobine, reference compound] | – | – | IC50 ([1]; same conditions as Table 1 (NF54, 72h), read-out: mean IC50 +/- SD): 1220 ± 130 nM |
| COc1cc2c3c4c1Oc1cc5c(cc1O4)C(Cc1ccc(OCC4CO4)c(c1)Oc1ccc(cc1)CC3N(C)CC2)N(C)CC5 (stereo not drawn) [Compound 73] | 299 ± 25 | 15.8 | – |
| COc1ccc2cc1Oc1ccc(cc1)CC1c3c(cc(OC)c4c3Oc3cc5c(cc3O4)CCN(CCOCCOCCO)C5C2)CCN1C (stereo not drawn) [Compound 43] | 438 ± 95 | 13.3 | – |
| Oc1ccc2cc1Oc1ccc(cc1)CC1NCCc3cc(O)c4c(c31)Oc1cc3c(cc1O4)CCNC3C2 (stereo not drawn) [Compound 121] | – | – | IC50 [1, 9]: 115 ± 55 nM; Speed of action (parasite reduction rate) [7]: act as fast as dihydroartemisinin (DHA) |
| COc1cc2c3c4c1Oc1cc5c(cc1O4)C(Cc1ccc(OCCC4CCCN4C)c(c1)Oc1ccc(cc1)CC3N(C)CC2)N(C)CC5 (stereo not drawn) [Compound 75] | 352 ± 54 | 14.9 | – |
| COc1cc2c3c4c1Oc1cc5c(cc1O4)C(Cc1ccc(OCCN(C)C)c(c1)Oc1ccc(cc1)CC3N(C)CC2)N(C)CC5 (stereo not drawn) [Compound 82] | 260 ± 34 | 13.4 | – |
| COc1ccc2cc1Oc1ccc(cc1)CC1c3c(cc(OC)c4c3Oc3cc5c(cc3O4)CCN(C)C5C2)CCN1CCOCCOCCO (stereo not drawn) [Compound 42] | 437 ± 83 | 12.9 | – |
| CN(C)Cc1cc2cc(c1O)Oc1ccc(cc1)CC1c3c(c(CN(C)C)c(O)c4c3Oc3cc5c(cc3O4)CCN(C)C5C2)CCN1C (stereo not drawn) [Compound 123] | 283 ± 155 | – | – |
| CN1CCc2cc3c4cc2C1Cc1ccc(O)c(c1)Oc1ccc(cc1)CC1c2c(cc(O)c(c2O4)O3)CCN1C (stereo not drawn) [Compound 110] | – | – | IC50 [1, 9]: 146 ± 39 nM |
| COc1ccc2cc1Oc1ccc(cc1)CC1c3c(cc(OC)c4c3Oc3cc5c(cc3O4)CCN(C(=O)NCCN3CCN(C)CC3)C5C2)CCN1C (stereo not drawn) [Compound 60] | 227 ± 59 | 15.4 | – |
| COc1cc2c3c4c1Oc1cc5c(cc1O4)C(Cc1ccc(OC4CCCN(C)CC4)c(c1)Oc1ccc(cc1)CC3N(C)CC2)N(C)CC5 (stereo not drawn) [Compound 74] | 297 ± 42 | 14.7 | – |
